The CheMixHub viscosity set

Assay: xn = mol fraction of the nth substance listed

O=C1CCCN1 + O
Details	viscosity [mPa·s]
298.15 K, 100 kPa, x1 = 0.0115	1.015
298.15 K, 100 kPa, x1 = 0.0189	1.099
298.15 K, 100 kPa, x1 = 0.0287	1.211
298.15 K, 100 kPa, x1 = 0.0388	1.328
298.15 K, 100 kPa, x1 = 0.0505	1.472
298.15 K, 100 kPa, x1 = 0.0598	1.591
298.15 K, 100 kPa, x1 = 0.0698	1.725
298.15 K, 100 kPa, x1 = 0.0803	1.875
298.15 K, 100 kPa, x1 = 0.0898	2.013
298.15 K, 100 kPa, x1 = 0.1007	2.241
298.15 K, 100 kPa, x1 = 0.1507	3.167
298.15 K, 100 kPa, x1 = 0.2024	4.25
298.15 K, 100 kPa, x1 = 0.2554	5.425
298.15 K, 100 kPa, x1 = 0.3052	6.531
298.15 K, 100 kPa, x1 = 0.3568	7.599
298.15 K, 100 kPa, x1 = 0.4091	8.579
298.15 K, 100 kPa, x1 = 0.4579	9.388
298.15 K, 100 kPa, x1 = 0.5569	10.69
298.15 K, 100 kPa, x1 = 0.6612	11.65
298.15 K, 100 kPa, x1 = 0.7216	12.08
298.15 K, 100 kPa, x1 = 0.8231	12.63
298.15 K, 100 kPa, x1 = 0.8637	12.82
298.15 K, 100 kPa, x1 = 0.9213	13.08
298.15 K, 100 kPa, x1 = 0.9301	13.11
298.15 K, 100 kPa, x1 = 0.9395	13.16
298.15 K, 100 kPa, x1 = 0.9491	13.18
298.15 K, 100 kPa, x1 = 0.9588	13.21
298.15 K, 100 kPa, x1 = 0.969	13.22
298.15 K, 100 kPa, x2 = 0.0105	13.3
304.15 K, 101.33 kPa, x2 = 0.1162	10.05
304.15 K, 101.33 kPa, x2 = 0.1885	9.771
304.15 K, 101.33 kPa, x2 = 0.2962	9.28
304.15 K, 101.33 kPa, x2 = 0.407	8.553
304.15 K, 101.33 kPa, x2 = 0.5061	7.697
304.15 K, 101.33 kPa, x2 = 0.5975	6.611
304.15 K, 101.33 kPa, x2 = 0.6831	5.353
304.15 K, 101.33 kPa, x2 = 0.8066	3.322
304.15 K, 101.33 kPa, x2 = 0.9019	1.885
308.15 K, 101 kPa, x1 = 0.0921	1.572
308.15 K, 101 kPa, x1 = 0.1915	2.467
308.15 K, 101 kPa, x1 = 0.315	3.573
308.15 K, 101 kPa, x1 = 0.4027	4.339
308.15 K, 101 kPa, x1 = 0.519	5.43
308.15 K, 101 kPa, x1 = 0.5927	6.176
308.15 K, 101 kPa, x1 = 0.6947	6.828
308.15 K, 101 kPa, x1 = 0.7877	7.493
308.15 K, 101 kPa, x1 = 0.9207	8.425
308.15 K, 101.33 kPa, x2 = 0.1162	8.702
308.15 K, 101.33 kPa, x2 = 0.1885	8.419
308.15 K, 101.33 kPa, x2 = 0.2962	7.958
308.15 K, 101.33 kPa, x2 = 0.407	7.333
308.15 K, 101.33 kPa, x2 = 0.5061	6.591
308.15 K, 101.33 kPa, x2 = 0.5975	5.665
308.15 K, 101.33 kPa, x2 = 0.6831	4.612
308.15 K, 101.33 kPa, x2 = 0.8066	2.917
308.15 K, 101.33 kPa, x2 = 0.9019	1.69
313.15 K, 101 kPa, x1 = 0.0803	1.274
313.15 K, 101 kPa, x1 = 0.1598	2.074
313.15 K, 101 kPa, x1 = 0.2476	3.053
313.15 K, 101 kPa, x1 = 0.3087	3.73
313.15 K, 101 kPa, x1 = 0.4	4.641
313.15 K, 101 kPa, x1 = 0.4668	5.207
313.15 K, 101 kPa, x1 = 0.5478	5.763
313.15 K, 101 kPa, x1 = 0.6434	6.298
313.15 K, 101 kPa, x1 = 0.7195	6.627
313.15 K, 101 kPa, x1 = 0.7991	6.924
313.15 K, 101 kPa, x1 = 0.8781	7.184
313.15 K, 101 kPa, x1 = 0.9585	7.432
313.15 K, 101.33 kPa, x2 = 0.1162	7.3
313.15 K, 101.33 kPa, x2 = 0.1885	7.066
313.15 K, 101.33 kPa, x2 = 0.2962	6.647
313.15 K, 101.33 kPa, x2 = 0.407	6.111
313.15 K, 101.33 kPa, x2 = 0.5061	5.506
313.15 K, 101.33 kPa, x2 = 0.5975	4.74
313.15 K, 101.33 kPa, x2 = 0.6831	3.873
313.15 K, 101.33 kPa, x2 = 0.8066	2.495
313.15 K, 101.33 kPa, x2 = 0.9019	1.483
318.15 K, 101.33 kPa, x2 = 0.1162	6.211
318.15 K, 101.33 kPa, x2 = 0.1885	5.985
318.15 K, 101.33 kPa, x2 = 0.2962	5.641
318.15 K, 101.33 kPa, x2 = 0.407	5.164
318.15 K, 101.33 kPa, x2 = 0.5061	4.656
318.15 K, 101.33 kPa, x2 = 0.5975	4.004
318.15 K, 101.33 kPa, x2 = 0.6831	3.308
318.15 K, 101.33 kPa, x2 = 0.8066	2.165
318.15 K, 101.33 kPa, x2 = 0.9019	1.313
323.15 K, 101.33 kPa, x2 = 0.1162	5.336
323.15 K, 101.33 kPa, x2 = 0.1885	5.14
323.15 K, 101.33 kPa, x2 = 0.2962	4.823
323.15 K, 101.33 kPa, x2 = 0.407	4.414
323.15 K, 101.33 kPa, x2 = 0.5061	3.987
323.15 K, 101.33 kPa, x2 = 0.5975	3.433
323.15 K, 101.33 kPa, x2 = 0.6831	2.845
323.15 K, 101.33 kPa, x2 = 0.8066	1.901
323.15 K, 101.33 kPa, x2 = 0.9019	1.173
